Measurements: US12042520B2 (SOLUVEG SA, priority 2015, dated 2024)

How the values were obtained:
[1] = Curcumin plasma concentration after intravenous administration in the pig (for comparison); assay type: in vivo; settings: 0.60 grams for 23 kg
[2] = piperine used with curcumin; cited from earlier work

SMILES	Time for which the plasma concentration remains at a constant level [1]	Time of plasma concentration peak [1]	concentration at 0 hours ([1]; plasma, 0.6 grams for 23 kg of live weight, 0 hours)	concentration at 3 hours ([1]; plasma, 0.6 grams for 23 kg of live weight, 3 hours)	concentration at 6 hours ([1]; plasma, 0.6 grams for 23 kg of live weight, 6 hours)	concentration at 9 hours ([1]; plasma, 0.6 grams for 23 kg of live weight, 9 hours)	concentration at 24 hours ([1]; plasma, 0.6 grams for 23 kg of live weight, 24 hours)	concentration at 48 hours ([1]; plasma, 0.6 grams for 23 kg of live weight, 48 hours)	concentration at 72 hours ([1]; plasma, 0.6 grams for 23 kg of live weight, 72 hours)	Effect in the intestine (in words) [2]
COc1cc(/C=C/C(=O)CC(=O)/C=C/c2ccc(O)c(OC)c2)ccc1O [Curcumin, curcumin]	10 h	24 h	0 ng/mL	537 ng/mL	557 ng/mL	713 ng/mL	724 ng/mL	537 ng/mL	385 ng/mL	
O=C(/C=C/C=C/c1ccc2c(c1)OCO2)N1CCCCC1 [piperine]										irritating effect in the intestine
